For 23 molecules, EC50 results are on record in patent US10336733B2, “Aryl acylsulfonamides as BLT1 antagonists” (Merck Sharp & Dohme Corp., priority 2015, dated 2019).

Usually EC50 stands for the concentration needed to bring the measured effect to its halfway point.

The target in this test is human BLT1 receptor (Homo sapiens (Human), UniProt Q15722). In words: BLT-1 cAMP Assay. Format: cell-based. The following applies: antagonist mode; HEK293 cells recombinantly expressing human BLT1 receptor; forskolin 4 μM and LTB4 2 nM; cAMP detection. Here is the method: The ability of compounds to antagonize the human BLT1 receptor was determined using a kit to measure changes in intracellular cyclic AMP levels (cAMP dynamic assay kit, Cisbio Cat. No. 62AM4PEC). HEK293 cells recombinantly expressing human BLT1 receptor, previously frozen in Recovery Medium (Life Technologies, Cat. No. 12648-010) were thawed and diluted into assay medium (HBSS (Hyclone SH 30268.01), 20 mM HEPES (Gibco 15630-106), 800 μM IBMX (Sigma I5879), 0.1% DTPA BSA (Perkin Elmer CR84-100)). The cell suspension was centrifuged at 200×g for 10 min and then resuspended in fresh assay medium to a density of 2.5×10^5 cells/mL. A Labcyte Echo 550 acoustic dispenser was used to transfer 25 nL of test compound dissolved in DMSO into the wells of a dry 384-well plate (Greiner 784075). All subsequent liquid additions were performed using a BIORAPTR (FRD; Beckman Coulter). Next, 5 μL of cell suspension was added and incubated for 20 min. at 37° C. and 5% CO2 in a humidified plastic tray. To test for agonist activity […] of assay buffer containing forskolin (Sigma F-6886. 4 μM for BLT1) was added and incubated for 30 minutes at 37° C. and 5% CO2 in a humidified plastic tray. To test for antagonist activity 5 μL of assay buffer containing forskolin (Sigma F-6886. 4 μM for BLT1) and either LTB4 (Sigma Aldrich L0517; 2 nM BLT1) was added and incubated for 30 minutes at 37° C. and 5% CO2 in a humidified plastic tray.
Chain of human BLT1 receptor (Q15722 whole entry): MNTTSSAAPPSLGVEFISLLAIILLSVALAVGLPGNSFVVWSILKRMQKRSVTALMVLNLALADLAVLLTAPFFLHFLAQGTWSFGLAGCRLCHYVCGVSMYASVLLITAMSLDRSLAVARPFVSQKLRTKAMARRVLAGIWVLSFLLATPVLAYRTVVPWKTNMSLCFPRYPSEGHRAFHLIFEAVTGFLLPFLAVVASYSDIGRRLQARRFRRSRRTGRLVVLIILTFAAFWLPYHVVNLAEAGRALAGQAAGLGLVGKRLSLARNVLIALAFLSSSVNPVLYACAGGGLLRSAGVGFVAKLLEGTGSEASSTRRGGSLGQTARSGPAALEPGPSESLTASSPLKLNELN
The levels of cAMP were detected using the CisBio kit following the manufacturer's instructions: cAMP-d2 vial was reconstituted with distilled water and then diluted accordingly with conjugate & lysis buffer. 5 μL of cAMP-d2 working solution was added to all of the wells of the assay plate. cAMP-Cryptate vial was reconstituted with distilled water and then diluted accordingly with conjugate & lysis buffer. 5 μL of cAMP-Cryptate working solution were added to the assay plate. The assay plate was shaken for 3 minutes and incubated at room temperature for 45 minutes, then read on Perkin Elmer Envision. cAMP standard curve and fit data were plotted using a 4 parameter dose response curve fitting algorithm to fit curve. A 4-parameter curve fit (Max, min, log EC50 and slope) was used to transform fluorescent 665 nm/615 nm ratio signal to cAMP concentration. After normalization to treated and untreated controls, the percent effect of signal at each compound concentration was calculated. The plot of percent effect versus the log of compound concentration was fit with a 4-parameter concentration response equation to calculate EC50 values. Compound concentrations tested were 10 000, 3 333, 1 111, 370.4, 123.4, 41.2, 13.7, 4.6, 1.5 and 0.5 nM with 0.25% residual DMSO.
Consider `Cn1nccc1C[C@@H]1COc2cc(-c3ccccc3C(=O)NS(=O)(=O)C(C)(C)C)ccc2[C@H]1O` (racemic) [Example 35, N-(tert-Butylsulfonyl)-2-((rac-trans)-4-hydroxy-3-((1-methyl-1H-pyrazol-5-yl)methyl)chroman-7-yl)benzamide], for which the EC50 amounted to 95 nM.

Take `CC1(S(=O)(=O)NC(=O)c2ccccc2-c2ccc3c(c2)OC[C@@H](Cc2ccccn2)[C@@H]3O)CC1` (single isomer, unassigned) [Example 7, 2-((3R,4S or 3S,4R)-4-Hydroxy-3-(pyridin-2-ylmethyl)chroman-7-yl)-N-((1-methylcyclopropyl)sulfonyl)benzamide]: the EC50 came out at 1270 nM.

Consider `CC(C)(C)S(=O)(=O)NC(=O)c1ccc(F)cc1-c1ccc2c(c1)OC[C@@H](Cc1ccccn1)[C@@H]2O` (single isomer, unassigned) [Example 13, N-(tert-Butylsulfonyl)-4-fluoro-2-((3R,4S or 3S,4R)-4-hydroxy-3-(pyridin-2-ylmethyl)chroman-7-yl)benzamide], for which the concentration giving a half-maximal response (EC50) turned out to be 441 nM.

`CC(C)(C)S(=O)(=O)NC(=O)c1ccccc1-c1ccc2c(c1)OC[C@H](Cc1cscn1)[C@H]2O` (single isomer, unassigned) [Example 34, N-(tert-Butylsulfonyl)-2-((3S,4R or 3R,4S)-4-hydroxy-3-(thiazol-4-ylmethyl)chroman-7-yl)benzamide]: the EC50 is 9 nM.

Turning to `CC1(S(=O)(=O)NC(=O)c2ccc(F)cc2-c2ccc3c(c2)OC[C@@H](Cc2ccccn2)[C@@H]3O)CC1` (single isomer, unassigned) [Example 10, 4-Fluoro-2-((3R,4S or 3S,4R)-4-hydroxy-3-(pyridin-2-ylmethyl)chroman-7-yl)-N-((1-methylcyclopropyl)sulfonyl)benzamide], the concentration giving a half-maximal response (EC50) turned out to be 870 nM.

For `Cc1nnc(C[C@@H]2COc3cc(-c4ccccc4C(=O)NS(=O)(=O)C4(C)CC4)ccc3[C@H]2O)s1` (racemic) [Example 29, 2-((Rac-trans)-4-Hydroxy-3-((5-methyl-1,3,4-thiadiazol-2-yl)methyl)chroman-7-yl)-N-((1-methylcyclopropyl)sulfonyl)benzamide], the EC50 was 740 nM.

With `O=C(NS(=O)(=O)C1CC1)c1ccc(F)cc1-c1ccc2c(c1)OC[C@H](Cc1ccccn1)[C@H]2O` (single isomer, unassigned) [Example 16, N-(Cyclopropylsulfonyl)-4-fluoro-2-((3S,4R or 3R,4S)-4-hydroxy-3-(pyridin-2-ylmethyl)chroman-7-yl)benzamide], the EC50 stood at 4 nM.

Take `CC1(S(=O)(=O)NC(=O)c2ccc(F)cc2-c2ccc3c(c2)OC[C@H](Cc2ccccn2)[C@H]3O)CC1` (single isomer, unassigned) [Example 9, 4-Fluoro-2-((3S,4R or 3R,4S)-4-hydroxy-3-(pyridin-2-ylmethyl)chroman-7-yl)-N-((1-methylcyclopropyl)sulfonyl)benzamide]: the concentration for a half-maximal effect (EC50) amounted to 4 nM.

On to `O=C(NS(=O)(=O)C1CCCC1)c1ccccc1-c1ccc2c(c1)OCC(Cc1ccccn1)C2O` (stereo not drawn) [Example 19, N-(Cyclopentylsulfonyl)-2-((3,4-trans)-4-hydroxy-3-(pyridin-2-ylmethyl)chroman-7-yl)benzamide], for which the EC50 came out at 48 nM.

Regarding `CC1(S(=O)(=O)NC(=O)c2ccccc2-c2ccc3c(c2)OC[C@@H](Cc2cscn2)[C@@H]3O)CC1` (single isomer, unassigned) [Example 26, 2-((3R, 4S or 3S, 4R)-4-Hydroxy-3-(thiazol-4-ylmethyl)chroman-7-yl)-N-((1-methylcyclopropyl)sulfonyl)benzamide], the EC50 turned out to be 770 nM.

For the molecule `O=C(NS(=O)(=O)C1CC1)c1ccccc1-c1ccc2c(c1)OC[C@H](Cc1ccccn1)[C@H]2O` (single isomer, unassigned) [Example 6, N-(Cyclopropylsulfonyl)-2-((3S,4R or 3R,4S)-4-hydroxy-3-(pyridin-2-ylmethyl)chroman-7-yl)benzamide], the EC50 turned out to be 28 nM.

`O=C(NS(=O)(=O)C1CC1)c1ccccc1-c1ccc2c(c1)OC[C@H](Cc1ccccc1)[C@H]2O` (single isomer, unassigned) [Example 24, 2-((3S,4R or 3R,4S)-3-Benzyl-4-hydroxychroman-7-yl)-N-(cyclopropylsulfonyl)benzamide]: the EC50 was determined as 17 nM.

Regarding `O=C(NS(=O)(=O)C1CC1)c1ccc(F)cc1-c1ccc2c(c1)OC[C@@H](Cc1ccccn1)[C@@H]2O` (single isomer, unassigned) [Example 15, N-(Cyclopropylsulfonyl)-4-fluoro-2-((3R,4S or 3S,4R)-4-hydroxy-3-(pyridin-2-ylmethyl)chroman-7-yl)benzamide], the EC50 came to 480 nM.

`Cc1nnc(C[C@@H]2COc3cc(-c4ccccc4C(=O)NS(=O)(=O)C(C)(C)C)ccc3[C@H]2O)s1` (racemic) [Example 31, N-(tert-Butylsulfonyl)-2-((rac-trans)-4-hydroxy-3-((5-methyl-1,3,4-thiadiazol-2-yl)methyl)chroman-7-yl)benzamide]: the half-maximal effective concentration (EC50) was found to be 556 nM.

Consider `CC(C)(C)S(=O)(=O)NC(=O)c1ccccc1-c1ccc2c(c1)OC[C@@H](Cc1ccccn1)[C@@H]2O` (single isomer, unassigned) [Example 11, N-(tert-Butylsulfonyl)-2-((3R,4S or 3S,4R)-4-hydroxy-3-(pyridin-2-ylmethyl)chroman-7-yl)benzamide], for which the EC50 was 144 nM.

With `CC(C)(C)S(=O)(=O)NC(=O)c1ccccc1-c1ccc2c(c1)OC[C@@H](Cc1coc(-c3ccccc3)n1)[C@@H]2O` (single isomer, unassigned) [Example 47, N-(tert-Butylsulfonyl)-2-((3R,4S or 3S,4R)-4-hydroxy-3-((2-phenyloxazol-4-yl)methyl)chroman-7-yl)benzamide], the EC50 amounted to 75 nM.

For `CC1(S(=O)(=O)NC(=O)c2ccccc2-c2ccc3c(c2)OC[C@H](Cc2cscn2)[C@H]3O)CC1` (single isomer, unassigned) [Example 27, 2-((3S, 4R or 3R,4S)-4-hydroxy-3-(thiazol-4-ylmethyl)chroman-7-yl)-N-((1-methylcyclopropyl)sulfonyl)benzamide], the 50% effective concentration (EC50) came to 26 nM.

Turning to `O=C(NS(=O)(=O)C1CC1)c1ccccc1-c1ccc2c(c1)OC[C@@H](Cc1ccccc1)[C@@H]2O` (single isomer, unassigned) [Example 23, 2-((3R,4S or 3S,4R)-3-Benzyl-4-hydroxychroman-7-yl)-N-(cyclopropylsulfonyl)benzamide], the EC50 was found to be 2820 nM.

Turning to `CC1(S(=O)(=O)NC(=O)c2ccccc2-c2ccc3c(c2)OC[C@H](Cc2ccccn2)[C@H]3O)CC1` (single isomer, unassigned) [Example 8, 2-((3S,4R or 3R,4S)-4-Hydroxy-3-(pyridin-2-ylmethyl)chroman-7-yl)-N-((1-methylcyclopropyl)sulfonyl)benzamide], the EC50 turned out to be 22 nM.

`CC1(S(=O)(=O)NC(=O)c2ccccc2-c2ccc3c(c2)OC[C@@H](Cc2ccccc2)[C@@H]3O)CC1` (single isomer, unassigned) [Example 21, 2-((3R,4S or 3S,4R)-3-Benzyl-4-hydroxychroman-7-yl)-N-((1-methylcyclopropyl)sulfonyl)benzamide]: the EC50 was determined as 2040 nM.

In the case of `CS(=O)(=O)NC(=O)c1ccc(F)cc1-c1ccc2c(c1)OC[C@@H](Cc1ccccn1)[C@@H]2O` (single isomer, unassigned) [Example 3, 4-Fluoro-2-((3R,4S or 3S,4R)-4-hydroxy-3-(pyridin-2-ylmethyl)chroman-7-yl)-N-(methylsulfonyl)benzamide], the EC50 is 1720 nM.

Consider `CCn1nccc1C[C@@H]1COc2cc(-c3ccccc3C(=O)NS(=O)(=O)C(C)(C)C)ccc2[C@H]1O` (single isomer, unassigned) [Example 38, N-(tert-Butylsulfonyl)-2-((3R,4S or 3S,4R)-3-((1-ethyl-1H-pyrazol-5-yl)methyl)-4-hydroxychroman-7-yl)benzamide], for which the half-maximal effective concentration (EC50) was determined as 1160 nM.

Take `O=C(NS(=O)(=O)C(F)(F)F)c1ccc(F)cc1-c1ccc2c(c1)OC[C@H](Cc1ccc(-c3ccccc3)cc1)[C@H]2O` (racemic) [Example 40, 2-((Rac-trans)-3-([1,1′-Biphenyl]-4-ylmethyl)-4-hydroxychroman-7-yl)-4-fluoro-N-((trifluoromethyl)sulfonyl)benzamide]: the EC50 amounted to 9 nM.
